Test results published in patent US20050272738A1, “Combined treatment with oxaliplatin and an epidermal growth factor receptor kinase inhibitor” (priority 2004, published 2005).
Several values for one entry are separate records, joined by “and”; a condition that tells them apart may be missing. Equal entries are not always repeated. Where two headings read alike, the source gives them in different places.

Assays:
[1] = system: colorectal cancer; settings: cited from earlier work
[2] = system: LoVo human colon xenograft; assay: Anti-tumor efficacy in LoVo human colorectal xenograft in nude mice (experiments 525 and 540); type: in vivo, female athymic nu/nu mice
Excerpt: The goal of this study is to assess the anti-tumor efficacy of the small molecule epidermal growth factor receptor inhibitor (EGFRi) Tarceva™ in combination with oxalipaltin on LoVo colorectal human xenograft, grown in female athymic nu/nu mice. Oxaliplatin is an agent that is currently used clinically in the treatment of colorectal cancer alone and in combination with other chemotherapeutic agents and/or radiation, depending on the stage of disease. In this study, the drugs were combined at their respective maximum tolerated dose (MTD) and also combined together at sub-optimal doses. All doses included in the combination groups were also included in the study as monotherapy arms. The attempt was to achieve maximum efficacy/regression without increased toxicity.
(§1) The health of all animals was determined daily by gross observation of experimental animals and by the analyses of blood samples of sentinel animals that were housed on the shared shelf racks. All animals were allowed to acclimate and recover from any shipping related stress for one week prior to experimental manipulation. […] Cages, bedding and water bottles were autoclaved before use and were changed weekly. […] All in vivo experiments were performed in accordance with protocols approved by the Roche Animal Care and Use Committee (RACUC). The Roche animal care facility is fully accredited by the American Association for the Accreditation of Lab Animal Care (AAALAC).
LoVo cells were grown in F-12K+20% FBS (not heat inactivated) and harvested. 5×10^6 cells/0.2 ml/mouse in PBS (Phosphate Buffered Saline) were implanted subcutaneously in the right flank on Aug.
Formulated compound was made up in one batch for the entire 3 week study.
Oxaliplatin was provided in clinical form. […] An aliquot of the stock vial solutions was taken for each dose group representing the drug needed for that group for the entire study duration and diluted out further with sterile saline, to provide a solution that renders a 0.2 ml dosing volume for each individual animal.
For study 540, animals were randomized according to tumor volume on day 17 post tumor implantation so that all groups had similar starting mean tumor volumes of 100-150 mm^3.
For efficacy study 540, treatment began on Sep. […] Tarceva™ was administered using a 1 cc syringe and 18-gauge gavage needles (0.2 ml/animal). Oxaliplatin was administered ip using a 1-cc syringe and 26-gauge needle (0.2 ml/animal). […] Treatment ended on Sep. […] No end of study drug exposure analysis was performed on this study.
(§2) Tumor measurements and mouse weights were taken two-three times per week for LoVo. All animals were individually followed throughout the experiment.
Efficacy data was graphically represented as the mean tumor volume+standard error of the mean (SEM).
Tumor volume (in cubic millimeters) was calculated using the ellipsoid formula: (D×(d2))/2 • where ‘D’ represents the large diameter of the tumor, and ‘d’ represents the small diameter.
In some cases, tumor regression and/or percent change in tumor volume was calculated using the formula: ((T−T0)/T0)×100 • where ‘T’ represents mean tumor volume of the treated group at a particular day and ‘T0’ represents mean tumor volume of the same treated group at initiation of treatment.
Statistical analysis was determined by the rank sum test and One Way Anova and a post-hoc Bonferroni t-test (SigmaStat, version 2.0, Jandel Scientific, San Francisco, Calif.).

[3] = system: HCT116 tumor model; settings: HCT116 model (data not shown)
[4] = Toxicity in LoVo efficacy study 540 (body weight, deaths, clinical signs); type: in vivo, female nude mice; settings: Tarceva 100 mg/kg (Group 2)
Procedure: as §1
For efficacy study 540, treatment began on Sep. […] Tarceva™ was administered using a 1 cc syringe and 18-gauge gavage needles (0.2 ml/animal). Oxaliplatin was administered ip using a 1-cc syringe and 26-gauge needle (0.2 ml/animal). All groups were treated q7d for 3 weeks (total 3 injections). Treatment ended on Sep. […] No end of study drug exposure analysis was performed on this study.
as §2

[5] = Maximum tolerated dose / tolerability of Tarceva in nude mice (MTD study and previous efficacy studies); type: in vivo, naïve female nude mice
Procedure: Preliminary studies were performed in naïve female nude mice to determine the maximum tolerated dose (MTD) of Tarceva™. The MTD was defined as a dose that renders <20% body weight loss and no death in a 14 day study. […] Based on literature, a dosage for oxaliplatin of 10 mg/kg, once a week intraperitoneal was adopted in the study (Cividalli A, et al. (2002) Int. J. Radiat. Oncol. Biol. Phys. 52(4):1092-1098).

[6] = oxaliplatin 5 mg/kg q7d ip, LoVo, study 540
[7] = oxaliplatin 10 mg/kg q7d ip, LoVo, study 540
[8] = Tarceva 100 mg/kg qd, LoVo, study 540

For `O=c1[nH]cc(F)c(=O)[nH]1` [5-fluorouracil], the response rates ([1]; single-agent treatment, advanced colorectal cancer) is listed as “about 10%”.
For `O=C(O)C(=O)O.[NH-][C@@H]1CCCC[C@H]1[NH-].[Pt+2]` [Oxaliplatin], the “% T/C” value [2, 6] was 67%, the “tumor growth inhibition (TGI)” value [2, 6] was 33% and the “% T/C” value [2, 7] was 61%. For the same molecule, the “tumor growth inhibition (TGI)” value [2, 7] was 39%, the “tumor growth inhibition (TGI)” value ([3]; oxaliplatin 5 mg/kg) was 21% and the “tumor growth inhibition (TGI)” value ([3]; oxaliplatin 10 mg/kg) was 26%. For the same molecule, the response rates ([1]; combined with 5-FU and leucovorin, first-line treatment for colorectal cancer) was 25-40%.
In the case of `C#Cc1cccc(Nc2ncnc3cc(OCCOC)c(OCCOC)cc23)c1` [Tarceva™, [6,7-bis(2-methoxyethoxy)-4-quinazolin-4-yl]-(3-ethynylphenyl) amine], the tumor growth inhibition ([2]; Tarceva 25 mg/kg qd, LoVo, across experiments) is reported as 53-79%, the “% T/C” value ([2]; Tarceva 25 mg/kg qd, LoVo, study 540) is reported as 47% and the tumor growth inhibition ([2]; Tarceva 25 mg/kg qd, LoVo, study 540, day 39 post tumor implant) is reported as 53%. The “% T/C” value [2, 8] was 2%, the “number of partial regressions” value [2, 8] was “four” and the “partial regressions (percent, in brackets)” value [2, 8] was 16% and 7%. For the same molecule, the “tumor growth inhibition (TGI)” value ([2]; Tarceva 100 mg/kg qd, LoVo, study 540, day 39 post tumor implant) was 98%, the tumors partially regressed ([2]; Tarceva 100 mg/kg, LoVo, experiments 525 and 540) was 40-60% and the “tumor growth inhibition (TGI)” value ([2]; erlotinib 25 mg/kg monotherapy, LoVo (summary value)) was 79%. The “mice showing partial regressions (PR)” value ([2]; erlotinib 100 mg/kg monotherapy, LoVo) was 6/10, the “tumor growth inhibition (TGI)” value ([2]; erlotinib 100 mg/kg monotherapy, LoVo, experiment 525) was > 100% and the clinical signs [4] was “classic reddening of the skin”. The “maximum tolerated dose (MTD)” value ([5]; CMC/Tween formulation, 14 day study, MTD = <20% body weight loss and no death) was 100 mg/kg qd, the “toxicity at 200 mg/kg qd” value ([5]; CMC/Tween formulation, MTD study) was “showing toxicity” and the “tolerability at 150 mg/kg once a day” value ([5]; CMC/Tween, 3 weeks, previous efficacy studies) was “tolerated well”.
